From ChEMBL document CHEMBL4251741, “Amidate Prodrugs of Cyclic 9-(S)-[3-Hydroxy-2-(phosphonomethoxy)propyl]adenine with Potent Anti-Herpesvirus Activity” (ACS Med Chem Lett, 2018)

Tests used:
Human alphaherpesvirus 2 = assay: Antiviral activity against Herpes simplex virus 2 G infected in HEL cells assessed as inhibition of virus-induced cytopathic effect measured after 2 to 3 days post-infection; format: functional, organism-based; conditions: Human alphaherpesvirus 2, strain G
Human alphaherpesvirus 1 [1] = assay: Antiviral activity against Herpes simplex virus 1 KOS infected in HEL cells assessed as inhibition of virus-induced cytopathic effect measured after 2 to 3 days post-infection; format: functional, organism-based; conditions: Human alphaherpesvirus 1, KOS
Human betaherpesvirus 5 [2] = assay: Antiviral activity against Human cytomegalovirus AD169 infected in HEL cells assessed as inhibition of virus-induced cytopathic effect measured after 6 to 7 days post-infection; format: functional, organism-based; conditions: Human betaherpesvirus 5, AD169, HEL
[3] = Half life in human liver microsomes at 0.1 uM in presence of NADPH-generating system by HPLC-MS/MS analysis; format: ADME, microsome
[4] = Cytotoxicity against HEL cells assessed as reduction in cell viability after 3 days by coulter counting method; format: cell-based; conditions: human
Human alphaherpesvirus 1 [5] = assay: Antiviral activity against ACV-resistant thymidine kinase deficient Herpes simplex virus 1 KOS infected in HEL cells assessed as inhibition of virus-induced cytopathic effect measured after 2 to 3 days post-infection; format: functional, organism-based; conditions: Human alphaherpesvirus 1, KOS
[6] = Cytotoxicity against HEL cells assessed as morphological changes after 3 days by microscopic analysis; format: cell-based; conditions: human
Human alphaherpesvirus 3 [7] = assay: Antiviral activity against thymidine kinase deficient Varicella-Zoster virus 07-1 assessed as inhibition of plaque formation measured after 5 days post-infection; format: functional, organism-based; conditions: Human alphaherpesvirus 3, 07-1, 120 h
Human betaherpesvirus 5 [8] = assay: Antiviral activity against Human cytomegalovirus Davis infected in HEL cells assessed as inhibition of virus-induced cytopathic effect measured after 6 to 7 days post-infection; format: functional, organism-based; conditions: Human betaherpesvirus 5, Davis
Human alphaherpesvirus 3 [9] = assay: Antiviral activity against thymidine kinase expressing Varicella-Zoster virus Oka assessed as inhibition of plaque formation measured after 5 days post-infection; format: functional, organism-based; conditions: Human alphaherpesvirus 3, strain Oka vaccine, 120 h
[10] = Half life in human plasma at 1 uM by HPLC-MS/MS analysis; format: ADME, cell-free
[11] = Selectivity index, ratio of CC50 for HEL cells to EC50 for thymidine kinase deficient Varicella-Zoster virus 07-1 infected in HEL cells; format: toxicity, cell-based; conditions: human, read-out: Ratio CC50/EC50
[12] = Selectivity index, ratio of CC50 for HEL cells to EC50 for Human cytomegalovirus AD169 infected in HEL cells; format: toxicity, cell-based; conditions: read-out: Ratio CC50/EC50
[13] = Selectivity index, ratio of CC50 for HEL cells to EC50 for thymidine kinase expressing Varicella-Zoster virus Oka infected in HEL cells; format: toxicity, cell-based; conditions: human, read-out: Ratio CC50/EC50
[14] = Selectivity index, ratio of CC50 for HEL cells to EC50 for Human cytomegalovirus Davis infected in HEL cells; format: toxicity, cell-based; conditions: read-out: Ratio CC50/EC50
[15] = Selectivity index, ratio of CC50 for HEL cells to EC50 for Herpes simplex virus 2 G infected in HEL cells; format: toxicity, cell-based; conditions: human, read-out: Ratio CC50/EC50
[16] = Selectivity index, ratio of CC50 for HEL cells to EC50 for ACV-resistant thymidine kinase deficient Herpes simplex virus 1 KOS infected in HEL cells; format: toxicity, cell-based; conditions: human, read-out: Ratio CC50/EC50
[17] = Selectivity index, ratio of CC50 for HEL cells to EC50 for Herpes simplex virus 1 KOS infected in HEL cells; format: toxicity, cell-based; conditions: human, read-out: Ratio CC50/EC50

SMILES | EC50 (Human alphaherpesvirus 2) | EC50 (Human alphaherpesvirus 1 [1]) | EC50 (Human betaherpesvirus 5 [2]) | half-life at 0.1 µM [3] | CC50 at 72 h [4] | EC50 (Human alphaherpesvirus 1 [5]) | MCC at 72 h [6] | EC50 (Human alphaherpesvirus 3 [7]) | EC50 (Human betaherpesvirus 5 [8]) | EC50 (Human alphaherpesvirus 3 [9]) | half-life at 1 µM [10] | selectivity ratio [11] | selectivity ratio [12] | selectivity ratio [13] | selectivity ratio [14] | selectivity ratio [15] | selectivity ratio [16] | selectivity ratio [17]
CCCCCOC(=O)[C@H](CC(C)C)NP1(=O)CO[C@@H](Cn2cnc3c(N)ncnc32)CO1 (stereo partly drawn) | 1.9 nM | 1.3 nM | 5.7 nM | 16 min | 1620 nM | 1.3 nM | 4.27 µM | 0.59 nM | 3.8 nM | 0.47 nM | 84 min | – | – | – | – | – | – | –
CCCCCOC(=O)[C@H](C)NP1(=O)CO[C@@H](Cn2cnc3c(N)ncnc32)CO1 (stereo partly drawn) | 17 nM | 20 nM | 64 nM | – | 3400 nM | 10 nM | 23.5 µM | 4.3 nM | 65 nM | 2 nM | – | – | – | – | – | – | – | –
CCCCCOC(=O)[C@@H](NP1(=O)CO[C@@H](Cn2cnc3c(N)ncnc32)CO1)C(C)C (stereo partly drawn) | 4.2 nM | 3 nM | 5.9 nM | – | 7760 nM | 1.8 nM | 4.4 µM | 1.5 nM | 4.8 nM | 0.57 nM | – | – | – | – | – | – | – | –
CCCCCOC(=O)[C@@H](NP1(=O)CO[C@@H](Cn2cnc3c(N)ncnc32)CO1)[C@@H](C)CC (stereo partly drawn) | 2.7 nM | 2 nM | 7 nM | – | 12000 nM | 1.9 nM | 9.96 µM | 0.54 nM | 6.5 nM | 0.45 nM | – | 20000 | 1800 | 20000 | 1800 | > 4400 | > 4400 | > 4400
CCCCCOC(=O)[C@H](CCSC)NP1(=O)CO[C@@H](Cn2cnc3c(N)ncnc32)CO1 (stereo partly drawn) | 11 nM | 8.9 nM | 32 nM | – | 39600 nM | 5.7 nM | 4.11 µM | 4 nM | 29 nM | 2.6 nM | – | – | – | – | – | – | – | –
CCCCCOC(=O)[C@H](Cc1ccccc1)NP1(=O)CO[C@@H](Cn2cnc3c(N)ncnc32)CO1 (stereo partly drawn) | 2.3 nM | 3.5 nM | 31 nM | – | 30600 nM | 1.5 nM | 9.29 µM | 3.2 nM | 17 nM | 0.52 nM | – | – | – | – | – | > 4400 | > 4400 | > 4400
CCCCCOC(=O)[C@@H](NP(=O)(CO[C@H](CO)Cn1cnc2c(N)ncnc21)N[C@H](C(=O)OCCCCC)C(C)C)C(C)C | 2.8 nM | 2.3 nM | 100 nM | 4 min | 600 nM | 0.9 nM | 8.57 µM | 0.95 nM | 72 nM | 1.5 nM | > 120 min | – | – | – | – | – | – | –
CCCCCOC(=O)C[C@H](NP1(=O)CO[C@@H](Cn2cnc3c(N)ncnc32)CO1)C(=O)OCCCCC (stereo partly drawn) | 2 nM | 3.2 nM | 27 nM | 4 min | 2730 nM | 7.3 nM | 13.6 µM | 1.5 nM | 9 nM | 1.4 nM | 22 min | – | – | – | – | – | – | –
CCCCCOC(=O)CC[C@H](NP1(=O)CO[C@@H](Cn2cnc3c(N)ncnc32)CO1)C(=O)OCCCCC (stereo partly drawn) | 2.5 nM | 1.2 nM | 14 nM | – | 520 nM | 1.2 nM | 13.2 µM | 0.95 nM | 7.6 nM | 0.58 nM | – | – | – | – | – | – | – | –
CCCCCOC(=O)CC(NP1(=O)COC(Cn2cnc3c(N)ncnc32)CO1)C(=O)OCCCCC (single isomer, unassigned) | 110 nM | 210 nM | 4390 nM | – | 11600 nM | 76 nM | > 18.5 µM | 62 nM | 1620 nM | 33 nM | – | – | – | – | – | – | – | –
Nc1nc2c(ncn2COCCO)c(=O)[nH]1 [ACYCLOVIR] | – | – | – | – | – | – | > 88.8 µM | – | – | – | – | – | – | – | – | – | – | –
O=c1[nH]c(=O)n([C@H]2C[C@H](O)[C@@H](CO)O2)cc1/C=C/Br [BRIVUDINE] | > 30000 nM | – | – | – | > 300000 nM | > 30000 nM | > 30 µM | 22100 nM | – | 53 nM | – | – | – | – | – | – | – | –
Nc1ccn(C[C@@H](CO)OCP(=O)(O)O)c(=O)n1 [CIDOFOVIR] | 2730 nM | 4180 nM | – | – | > 358000 nM | 1950 nM | > 71.6 µM | – | – | – | – | – | – | – | – | – | – | –
Nc1nc2c(ncn2COC(CO)CO)c(=O)[nH]1 [GANCICLOVIR] | 51 nM | – | 7410 nM | – | > 319000 nM | > 29500 nM | > 39.2 µM | – | – | – | – | – | – | – | – | – | – | –
Nc1nc2c(ncn2CCC(CO)CO)c(=O)[nH]1 [PENCICLOVIR] | 840 nM | 480 nM | – | – | > 395000 nM | > 79000 nM | > 79 µM | – | – | – | – | – | – | – | – | – | – | –
